Assays:
[1] = Acute Toxicity (oral, Litchfield and Wilcoxon); assay type: in vivo; details: mouse, in vivo, po; mice; death within 14 days after application
Method: (§1) The acute toxicity was determined after oral administration to groups of 10 mice (sex ratio 1:1) from our own breeding colony.

[2] = tested on: mice; assay: Muscle relaxing and sedative activity in mice (slowly rotating wire cylinders, Young and Lewis); assay type: in vivo, NMRI-mice, female; details: Mus musculus, po, read-out: ED50 (50% of the animals fall out of rotating cylinder)
Method: 2. Muscle relaxing and sedative activity in mice:
The muscle relaxing and sedative activity was tested according to the method of Young and Lewis (Science 105, 368 (1947)) with female NMRI-mice of a specific breed having a body weight of from 20 to 26 gm. The test apparatus comprises slowly turning wire cylinders, sloped for 30° against the vertical line (length: 43 cm; diameter: 22 cm; mesh-size of the wire netting: 0.6 cm). After peroral administration of a suspension of the substance under test in 1% tylose suspension to groups of 10 mice/dose, their bearing in the slowly rotating cylinders (2 rotations/minute) was observed and was compared with a control group. The dose (ED50) which caused 50% of the animals to fall out after certain test times was determined graphically: […]

[3] = tested on: mice; assay: Activity on the spontaneous motility in mice (inhibition, photoelectric barriers, Friebel, Sommer and Varadan); assay type: in vivo, SPF-NMRI-mice, female; details: Mus musculus, po, read-out: ED50 (50% inhibition of spontaneous motility)
Method: 1. Activity on the spontaneous motility in mice:
The inhibition of spontaneous motility was determined with the aid of photoelectric barriers using an adaption of the method of Friebel, Sommer and Varadan (Arzneimittelforschung 9, 126 (1959)). SPF-NMRI-mice from our own breeding colony, having a body weight between 20 and 26 gm, were used. The number of interruptions in the flow of light was measured by ten photoelectric cells uniformly distributed in the bottom of a cylindrical cage, 25 cm in diameter, using a counting device. Thus, the spontaneous motility was registered as the animals moved over the bottom of the cage. 5 female mice were placed in each cage and their activity after application of the substance was measured for different periods of time relative to control mice. The present decrease in motility observed after application of various dosages relative to sham treated control animals was determined by graphical extrapolation, so that the dosage necessary for a 50% inhibition of spontaneous motility (ED50) could be obtained: […]

[4] = tested on: mice; assay: Acute Toxicity (oral, Litchfield and Wilcoxon); assay type: in vivo; details: p.o., within 14 days, printed beside LD50 >3200 mgm/kg
Method: as §1

Compound	LD50 at 336 h [1] [mg/kg]	ED50 ([2]; after 30-60 minutes) [mg/kg]	ED50 ([2]; after 90-120 minutes) [mg/kg]	ED50 ([2]; after 210-240 minutes) [mg/kg]	ED50 ([2]; after 270-300 minutes) [mg/kg]	ED50 ([3]; after 30-45 minutes) [mg/kg]	ED50 ([3]; after 90-105 minutes) [mg/kg]	ED50 ([3]; after 150-165 minutes) [mg/kg]	animals died [4]
CC1(C)[C@H](N2CCN(c3ccccn3)CC2)C(C)(C)[C@@]1(O)c1ccc(O)cc1 [A]	338	5.5	7.5	8.5	7.5	7.5	11	6	–
CCCCc1ccc([C@]2(O)C(C)(C)[C@@H](N3CCN(c4ccccn4)CC3)C2(C)C)cc1 [P]	–	15	4	3	6	9	3	2	–
CC(C)Cc1ccc([C@]2(O)C(C)(C)[C@@H](N3CCN(c4ccccc4)CC3)C2(C)C)cc1 [N]	–	65	3	2	3	8	2	1	–
CC1(C)[C@H](N2CCN(c3ccccn3)CC2)C(C)(C)[C@@]1(O)c1ccc(Cl)cc1 [H]	442	13	22	19	15	> 13	31	> 13	–
CC(C)Cc1ccc([C@]2(O)C(C)(C)[C@@H](N3CCN(c4ccccn4)CC3)C2(C)C)cc1 [M]	–	4	4	3	2	9	> 3	0.4	–
COc1ccc(N2CCN([C@H]3C(C)(C)[C@](O)(c4ccc(O)cc4)C3(C)C)CC2)cc1 [C]	> 6400	20	16	34	15.5	11	7.5	6	–
CCC(C)c1ccc([C@]2(O)C(C)(C)[C@@H](N3CCN(c4ccccn4)CC3)C2(C)C)cc1 (stereo partly shown) [L]	162	5	4	2	1	7	1	1	–
CC1(C)[C@H](N2CCN(c3ccc(O)cc3)CC2)C(C)(C)[C@@]1(O)c1ccc(O)cc1 [E]	> 3200	10	13	9	3	5	5	< 2.5	0 out of 10
CC(C)c1ccc([C@]2(O)C(C)(C)[C@@H](N3CCN(c4ccccc4)CC3)C2(C)C)cc1 [F]	> 800	29	4	2	3	95	5	2	–
COc1ccc([C@]2(O)C(C)(C)[C@@H](N3CCN(c4ccccc4)CC3)C2(C)C)cc1OC [D]	2900	> 40	32	16	14	26	22	3	–
CCCCc1ccc([C@]2(O)C(C)(C)[C@@H](N3CCN(c4ccccc4)CC3)C2(C)C)cc1 [Q]	–	> 200	22	8	8	34	> 3	4	–
CC(C)c1ccc([C@]2(O)C(C)(C)[C@@H](N3CCN(c4ccccn4)CC3)C2(C)C)cc1 [G]	118	11	8	3	8	7	3	5	–
CC1(C)[C@H](N2CCN(c3ccccn3)CC2)C(C)(C)[C@@]1(O)c1cccc(Cl)c1 [R]	–	46	8	8	11	> 25	12	13	–
CCC(C)c1ccc([C@]2(O)C(C)(C)[C@@H](N3CCN(c4ccccc4)CC3)C2(C)C)cc1 (stereo partly shown) [O]	800	1	1	2	1	9	3	2	–
CC(C)(C)c1ccc([C@]2(O)C(C)(C)[C@@H](N3CCN(c4ccccn4)CC3)C2(C)C)cc1 [I]	–	16	10	17	14	16	3	3	–
CC1(C)[C@H](N2CCN(c3ccccc3)CC2)C(C)(C)[C@@]1(O)c1ccc(O)cc1 [B]	1340	26	11	6	5.5	> 50	3	4	–
CC(C)(C)c1ccc([C@]2(O)C(C)(C)[C@@H](N3CCN(c4ccccc4)CC3)C2(C)C)cc1 [K]	–	48	8	6	1	15	3	2	–

From patent publication US3992536A, “Pharmaceutical compositions containing a 1-phenyl-2,2,4,4-C1 -C2 alkyl-3-[4-phenyl of pyridyl)-piperazino]-cyclobutanol-(1) and method of use” (Boehringer Ingelheim GmbH, priority 1972, dated 1976)
